Laboratory results from patent publication US8785488B2 (Exelixis Patent Company LLC, priority 2009, dated 2014).
pEC50: −log10 of the molar value. Read-outs that look alike come from different tables or passages of the source.

Tests used:
human TGR5 (h-TGR5) = biological target: T1, human TGR5 (h-TGR5) (Homo sapiens, UniProt Q8TDU6); assay: TGR5/CRE-Luciferiase Assay (HEK 293 hTGR5/CRE-Luc cells); assay type: cell-based
T1 construct: expressed in transfected cells
T1 sequence (Q8TDU6 1-330): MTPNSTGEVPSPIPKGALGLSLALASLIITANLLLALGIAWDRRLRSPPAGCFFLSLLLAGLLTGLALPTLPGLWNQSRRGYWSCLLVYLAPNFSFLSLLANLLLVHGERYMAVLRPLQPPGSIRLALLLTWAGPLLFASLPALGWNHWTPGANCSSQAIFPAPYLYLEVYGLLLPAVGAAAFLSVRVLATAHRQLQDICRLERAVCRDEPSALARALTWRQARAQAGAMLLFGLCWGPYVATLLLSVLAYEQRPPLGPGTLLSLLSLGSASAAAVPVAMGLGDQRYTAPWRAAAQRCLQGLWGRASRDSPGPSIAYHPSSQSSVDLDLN
How it was run: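 HEK293 cells stably carrying hTGR5 and a CRE-luciferase reporter were exposed to serially diluted compounds (diluted in DMEM with 5% DMSO) for 6 h. Cells were then lysed in luciferase buffer, luminescence was read, and EC50 values were derived from dose-response curves.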

h-TGR5 = biological target: T2, h-TGR5 (Homo sapiens, UniProt Q8TDU6); assay: TGR5 cAMP Assay using Cisbio cAMP Dynamic2 htrf kit (hTGR5CRE-luc HEK 293 cells); assay type: cell-based
T2 construct: expressed in transfected cells
T2 sequence (Q8TDU6 1-330): T1 sequence (Q8TDU6 1-330)
How it was run: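 […], 4000 hTGR5CRE-luc HEK 293 cells per well, with 0.5 mM IBMX and d2-cAMP, were incubated 30 min at room temperature with compounds in 8-point half-log series, in quadruplicate.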

[1] = h-TGR5 CRE-Luc EC50, Table 1, read-out: CRE-Luc (EC50)
[2] = h-TGR5 cAMP EC50, Table 1, read-out: cAMP (EC50)
[3] = HEK 293 hTGR5/CRE-Luc cells, 6 hours incubation, luciferase activity, Table 2, read-out: h-TGR5CRE-Luc EC50 (CRE-Luc)
[4] = hTGR5CRE-luc HEK 293 cells, htrf cAMP, Table 2, read-out: h-TGR5 cAMP EC50 (cAMP)

COc1cc(C(C)(C)c2cnc(SCc3c(F)cc(C(=O)NCS(=O)(=O)O)cc3F)n2-c2ccc(F)cc2)ccc1Cl [({[4-({[5-{1-[4-chloro-3-(methyloxy)phenyl]-1-methylethyl}-1-(4-fluorophenyl)-1H-imidazol-2-yl]thio}methyl)-3,5-difluorophenyl]carbonyl}amino)methanesulfonic acid]
pEC50 (human TGR5 (h-TGR5); [1]): > 7.00 | pEC50 (h-TGR5; [2]): > 7.00

COc1cc(C(C)(C)c2cnc(SCc3ccc(C(=O)NCS(=O)(=O)O)cc3F)n2-c2ccc(F)cc2)ccc1Cl [({[4-({[5-{1-[4-chloro-3-(methyloxy)phenyl]-1-methylethyl}-1-(4-fluorophenyl)-1H-imidazol-2-yl]thio}methyl)-3-fluorophenyl]carbonyl}amino)methanesulfonic acid]
pEC50 (human TGR5 (h-TGR5); [1]): > 7.00 | pEC50 (h-TGR5; [2]): > 7.00

CC(C)(c1ccc2nccnc2c1)c1nnc(SCc2c(F)cccc2Cl)n1-c1ccc(F)cc1 [Example 45]
pEC50 (human TGR5 (h-TGR5); [3]): > 7.00 | pEC50 (h-TGR5; [4]): > 7.00

CC(C)(c1ccc2cccnc2c1)c1nnc(SCc2c(F)cccc2Cl)n1-c1ccc(F)cc1 [Example 47]
pEC50 (human TGR5 (h-TGR5); [3]): > 7.00 | pEC50 (h-TGR5; [4]): > 7.00

CC(C)(c1ccc(Cl)c(Cl)c1)c1nnc(SCc2c(F)cc(C(=O)O)cc2F)n1-c1ccc(F)cc1 [Example 48]
pEC50 (human TGR5 (h-TGR5); [3]): 6.00 to 7.00 | pEC50 (h-TGR5; [4]): 6.00 to 7.00

COc1cc(-n2c(SCc3ccc(Cl)c(-c4nnn[nH]4)c3)nnc2C(C)(C)c2ccc(Cl)c(OC)c2)ccc1F [Example 49]
pEC50 (human TGR5 (h-TGR5); [3]): > 7.00 | pEC50 (h-TGR5; [4]): 6.00 to 7.00

CC(C)(c1ccc2onc(N)c2c1)c1cnc(SCc2c(F)cc(C(=O)NC(CCCNC(=N)N)C(=O)O)cc2Cl)n1-c1ccc(F)cc1 [N-2-({4-[({5-[1-(3-amino-1,2-benzisoxazol-5-yl)-1-methylethyl]-1-(4-fluorophenyl)-1H-imidazol-2-yl}thio)methyl]-3-chloro-5-fluorophenyl}carbonyl)-D-arginine]
pEC50 (human TGR5 (h-TGR5); [1]): > 7.00 | pEC50 (h-TGR5; [2]): > 7.00

COc1cc(-n2c(C(C)(C)c3ccc4onc(N)c4c3)cnc2SCc2c(F)cc(C(=O)NC(CCCNC(=N)N)C(=O)O)cc2Cl)ccc1F [N-2-({4-[({5-[1-(3-amino-1,2-benzisoxazol-5-yl)-1-methylethyl]-1-[4-fluoro-3-(methyloxy)phenyl]-1H-imidazol-2-yl}thio)methyl]-3-chloro-5-fluorophenyl}carbonyl]-D-arginine]
pEC50 (human TGR5 (h-TGR5); [1]): > 7.00 | pEC50 (h-TGR5; [2]): > 7.00

COc1cc(-n2c(C(C)(C)c3ccc(S(N)(=O)=O)c(Cl)c3)cnc2SCc2c(F)cc(C(=O)NC(CCCNC(=N)N)C(=O)O)cc2Cl)ccc1F [N-2-[(4-{[(5-{1-[4-(aminosulfonyl)-3-chlorophenyl]-1-methylethyl}-1-[4-fluoro-3-(methyloxy)phenyl]-1H-imidazol-2-yl)thio]methyl}-3-chloro-5-fluorophenyl)carbonyl]-D-arginine]
pEC50 (human TGR5 (h-TGR5); [1]): > 7.00 | pEC50 (h-TGR5; [2]): > 7.00

COc1cc(C(C)(C)c2cnc(SCc3c(F)cc(C(=O)NCCCC(NC(=N)N)C(=O)O)cc3Cl)n2-c2ccc(F)cc2)ccc1Cl [N-2-[amino(imino)methyl]-N-5-{[3-chloro-4-({[5-{1-[4-chloro-3-(methyloxy)phenyl]-1-methylethyl}-1-(4-fluorophenyl)-1H-imidazol-2-yl]thio}methyl)-5-fluorophenyl]carbonyl}-L-ornithine]
pEC50 (human TGR5 (h-TGR5); [1]): > 7.00 | pEC50 (h-TGR5; [2]): > 7.00

CC(C)(c1ccc(Cl)c(Cl)c1)c1cnc(CCc2c(F)cc(C(=O)N[C@@H](CCCNC(=N)N)C(=O)O)cc2Cl)n1-c1ccc(F)cc1 [N-2-{[3-chloro-4-(2-{5-[1-(3,4-dichlorophenyl)-1-methylethyl]-1-(4-fluorophenyl)-1H-imidazol-2-yl}ethyl)-5-fluorophenyl]carbonyl}-L-arginine]
pEC50 (human TGR5 (h-TGR5); [1]): 6.00 to 7.00 | pEC50 (h-TGR5; [2]): 6.00 to 7.00

COc1cc(C(C)(C)c2cnc(SCc3c(F)cc(C(=O)N[C@H](CCCNC(=N)N)C(=O)O)cc3Cl)n2-c2ccc(F)cc2)ccc1Cl [N-2-{[3-chloro-4-({[5-{1-[4-chloro-3-(methyloxy)phenyl]-1-methylethyl}-1-(4-fluorophenyl)-1H-imidazol-2-yl]thio}methyl)-5-fluorophenyl]carbonyl}-D-arginine]
pEC50 (human TGR5 (h-TGR5); [1]): > 7.00 | pEC50 (h-TGR5; [2]): > 7.00

COc1cc(C(C)(C)c2cnc(SCc3c(F)cc(C(=O)N[C@@H](CCCNC(=N)N)C(=O)O)cc3Cl)n2-c2ccc(F)cc2)ccc1Cl [N-2-{[3-chloro-4-({[5-{1-[4-chloro-3-(methyloxy)phenyl]-1-methylethyl}-1-(4-fluorophenyl)-1H-imidazol-2-yl]thio}methyl)-5-fluorophenyl]carbonyl}-L-arginine]
pEC50 (human TGR5 (h-TGR5); [1]): > 7.00 | pEC50 (h-TGR5; [2]): > 7.00

COc1cc(C(C)(C)c2cnc(SCc3c(F)cc(C(=O)N[C@@H](CCCN)C(=O)O)cc3Cl)n2-c2ccc(F)cc2)ccc1Cl [N-2-{[3-chloro-4-({[5-{1-[4-chloro-3-(methyloxy)phenyl]-1-methylethyl}-1-(4-fluorophenyl)-1H-imidazol-2-yl]thio}methyl)-5-fluorophenyl]carbonyl}-L-ornithine]
pEC50 (human TGR5 (h-TGR5); [1]): > 7.00 | pEC50 (h-TGR5; [2]): > 7.00

COc1cc(C(C)(C)c2cnc(SCc3c(F)cc(C(=O)NC(CCCNC(=N)N)C(=O)O)cc3Cl)n2-c2ccc(F)cc2)ccc1F [N-2-{[3-chloro-5-fluoro-4-({[5-{1-[4-fluoro-3-(methyloxy)phenyl]-1-methylethyl}-1-(4-fluorophenyl)-1H-imidazol-2-yl]thio}methyl)phenyl]carbonyl}-D-arginine]
pEC50 (human TGR5 (h-TGR5); [1]): > 7.00 | pEC50 (h-TGR5; [2]): > 7.00

COc1cc(C(C)(C)c2cnc(SCc3c(F)cc(C(=O)NCCCC(N)C(=O)O)cc3Cl)n2-c2ccc(F)cc2)ccc1Cl [N-5-{[3-chloro-4-({[5-{1-[4-chloro-3-(methyloxy)phenyl]-1-methylethyl}-1-(4-fluorophenyl)-1H-imidazol-2-yl]thio}methyl)-5-fluorophenyl]carbonyl}-L-ornithine]
pEC50 (human TGR5 (h-TGR5); [1]): > 7.00 | pEC50 (h-TGR5; [2]): > 7.00

COc1cc(C(C)(C)c2cnc(SCc3c(F)cc(C(=O)NC(CCCCNC(=N)N)C(=O)O)cc3Cl)n2-c2ccc(F)cc2)ccc1Cl [N-6-[amino(imino)methyl]-N-2-{[3-chloro-4-({[5-{1-[4-chloro-3-(methyloxy)phenyl]-1-methylethyl}-1-(4-fluorophenyl)-1H-imidazol-2-yl]thio}methyl)-5-fluorophenyl]carbonyl}-L-lysine]
pEC50 (human TGR5 (h-TGR5); [1]): > 7.00 | pEC50 (h-TGR5; [2]): > 7.00

COc1cc(C(C)(C)c2cnc(SCc3c(F)cc(OCCNC(=N)NC(=N)N)cc3F)n2-c2ccc(F)cc2)ccc1Cl [N-(2-{[4-({[5-{1-[4-chloro-3-(methyloxy)phenyl]-1-methylethyl}-1-(4-fluorophenyl)-1H-imidazol-2-yl]thio}methyl)-3,5-difluorophenyl]oxy}ethyl)imido dicarbonimidic diamide]
pEC50 (human TGR5 (h-TGR5); [1]): > 7.00 | pEC50 (h-TGR5; [2]): > 7.00

COc1cc(C(C)(C)c2cnc(SCc3c(F)cc(S(=O)(=O)NCCCNC(=N)N)cc3F)n2-c2ccc(F)cc2)ccc1Cl [N-(3-{[amino(imino)methyl]amino}propyl)-4-({[5-{1-[4-chloro-3-(methyloxy)phenyl]-1-methylethyl}-1-(4-fluorophenyl)-1H-imidazol-2-yl]thio}methyl)-3,5-difluorobenzenesulfonamide]
pEC50 (human TGR5 (h-TGR5); [1]): > 7.00 | pEC50 (h-TGR5; [2]): > 7.00

CC(=O)NS(=O)(=O)c1ccc(CSc2ncc(C(C)(C)c3ccc(Cl)c(Cl)c3)n2-c2ccc(F)cc2)c(Cl)c1 [N-({3-chloro-4-[({5-[1-(3,4-dichlorophenyl)-1-methylethyl]-1-(4-fluorophenyl)-1H-imidazol-2-yl}thio)methyl]phenyl}sulfonyl)acetamide]
pEC50 (human TGR5 (h-TGR5); [1]): 6.00 to 7.00 | pEC50 (h-TGR5; [2]): 6.00 to 7.00
